One assay concerns TNF-α production. Kind of assay: Inhibitory effect on TNF-α production in mice (LPS). The assay is classed as in vivo, BALB/c mice. Particulars: Mus musculus, 1.5 h; oral administration of 30 mg/kg, LPS 5 μg i.p. 60 minutes later, plasma after 90 minutes; read-out: TNF-α production suppressing action. As to the method:
BALB/c mice (Japan CRJ, famale) were used as experimental animals. Each test compound was dissolved in distilled water at a concentration suitable for the examination. The weight of each mouse was measured, a test compound solution was orally administered in a volume corresponding to 10 ml/kg, and only distilled water was administered to the control group. Each group consisted of five to seven animals. LPS was dissolved in physiological saline, and intraperitoneally administered to each mouse in an amount of 5 μg. The test compound was administered first, and LPS (lipopolysaccharide, Sigma) was administered 60 minutes later. After 90 minutes, blood was collected from the abdominal large vein in the presence of heparin, and plasma was obtained by centrifugation. TNF-α content in the plasma was measured by using the ELISA method.

For another assay, the target named is T1, human ROCK1 (Homo sapiens, UniProt Q13464).
T1 construct: His tag (N); host or cells: insect cells (Sf9)
T1 sequence (Q13464 1-727): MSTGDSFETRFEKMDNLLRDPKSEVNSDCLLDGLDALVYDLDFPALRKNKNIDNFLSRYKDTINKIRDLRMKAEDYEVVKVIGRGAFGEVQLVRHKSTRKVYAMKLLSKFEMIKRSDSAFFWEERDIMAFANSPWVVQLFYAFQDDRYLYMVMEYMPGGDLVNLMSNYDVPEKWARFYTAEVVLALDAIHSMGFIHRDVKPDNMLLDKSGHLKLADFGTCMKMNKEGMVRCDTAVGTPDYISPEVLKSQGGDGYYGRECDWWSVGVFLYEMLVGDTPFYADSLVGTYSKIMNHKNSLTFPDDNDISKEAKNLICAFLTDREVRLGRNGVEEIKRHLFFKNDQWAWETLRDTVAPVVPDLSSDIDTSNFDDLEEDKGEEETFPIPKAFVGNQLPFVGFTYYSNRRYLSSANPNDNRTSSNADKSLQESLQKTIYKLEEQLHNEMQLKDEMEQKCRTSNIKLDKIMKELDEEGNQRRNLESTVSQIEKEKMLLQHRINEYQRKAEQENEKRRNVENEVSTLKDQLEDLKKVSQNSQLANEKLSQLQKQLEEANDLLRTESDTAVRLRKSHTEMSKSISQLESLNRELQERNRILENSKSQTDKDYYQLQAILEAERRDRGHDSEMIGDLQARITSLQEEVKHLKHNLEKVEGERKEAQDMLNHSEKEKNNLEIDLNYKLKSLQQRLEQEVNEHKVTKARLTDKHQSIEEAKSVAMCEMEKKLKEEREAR
Description: Measurement of Rho kinase inhibitory activity (ELISA of MBS phosphorylation). The assay is classed as biochemical. Particulars: human ROCK1, MBS substrate, 100 μM ATP, 30° C. for 10 minutes. As to the method: In this test, human ROCK1 was used as Rho kinase, MBS (myosin binding subunit, subunit constituting myosin phosphatase) was used as the substrate of Rho kinase, and an anti-phosphorylated MBS antibody was used for detection of phosphorylation. The activity for inhibiting Rho kinase was determined by measuring phosphorylation of MBS by the Rho kinase by ELISA in the presence of an appropriately diluted test compound. As the Rho kinase used, a recombinant protein (N-terminal His-tagged recombinant human ROCK1 residues (1Met-[…])) was used, which was produced in insect cells (Sf9) using a sequence (1-727), of which activity was confirmed in the paper of Ishizaki et al. (Ishizaki, T. et al., FEBS Letters, 404, pp 118-124, 1997), based on the sequence of human ROCK1 (p 160 ROCK) described in the report of Ishizaki et al. (Ishizaki, T. et al., EMBO J., 15, pp 1885-1893, 1996). Further, as the MBS protein and anti-phosphorylated MBS antibody, those prepared according to the method described in the paper of Ito et al. (Ito, K et al., J. Physiol., 546, pp 823-836, 2003) were used.
A solution of MBS (Asahi Kasei Pharma, lot No, 040814n7-10) diluted with PBS to an appropriate concentration was added to an ELISA plate (Maxisorp, Nunc), and left, stand overnight at 4° C., and then the wells were washed twice with a washing solution (WB, washing buffer, 0.1% Tween 20/PBS). To the wells were added 1% bovine serum albumin (Sigma)/PBS, and left for 1 to 3 hours, and then the wells were washed 5 times with WB to prepare a substrate-immobilized plate. Onto this plate, a reaction mixture (5 mM MgSO4/0.1 M NaCl/20 mM HEPES (pH 7.5)/100 μM ATP/5 mM DTT), a test compound, and appropriately diluted human ROCK1 (Asahi Kasei Pharma, lot No, 030126.120-22) were added, and then reacted at 30° C. for 10 minutes. Then, 0.2 M EDTA (pH 7.5) was added to terminate the reaction, and the wells were washed 5 times with WB. A rabbit anti-phosphorylated MBS antibody solution (Asahi Kasei Pharma, lot No, 122676431) diluted 10,000 times with WB containing 1% bovine serum albumin was added to the wells, and after the reaction for 1 hour, the wells were washed 5 times with WB. Goat anti-rabbit IgG-HRP (Zymed) diluted 1,000 times with WB containing 1% bovine serum albumin was added to the wells as the secondary detection antibody and the mixture was reacted for 1 hour, and then the wells were washed 5 times with WB. An OPD (o-phenylenediamine) solution (1 mg/ml OPD, Sigma), 5.1 g/l of citric acid monohydrate, and 18.4 g/l of Na2HPO4.12H2O were added to the wells to develop color, […] was added 5 minutes later to terminate the color development, and absorbance was measured at 490 nm.
The inhibition ratio was calculated as follows. Inhibition ratio(%)=[…]
Further, the inhibition ratio was calculated with changing the concentration of the test compound, and a compound concentration providing an inhibition ratio of 50% was obtained as IC50.

Assay [1] concerns rabbit normal intraocular pressure. Description: Intraocular pressure reducing action. The assay is classed as in vivo, Japanese white rabbit. The settings on record: Oryctolagus cuniculus, topical; 3 mM aqueous solution, 50 μl to the left eye; max IOP reduction (2, 4, 6 hours) / value immediately before administration; read-out: intraocular pressure reducing degree. The procedure, abridged:
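Japanese white rabbits (~2 kg) under topical anaesthesia received 50 μl of a 3 mM aqueous test solution in the left eye, right eye untreated. IOP read by tonometer before and at 2, 4, 6 h; maximal left–right difference divided by pre-dose IOP ×100 gives % reduction.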

pIC50: −log10 of the molar value.

As for `N[C@H]1CCCN(S(=O)(=O)c2cccc3cncc(Br)c23)C1` [Example 2-1, (S)-3-Amino-1-(4-bromo-5-isoquinolinesulfonyl)piperidine], the inhibition in vivo at 30 mg/kg in the assay on TNF-α production was at least 50%. As to `CN[C@@H]1CCN(S(=O)(=O)c2cccc3cncc(C)c23)C1` [Example 27, (R)-3-(Methylamino)-1-(4-methyl-5-isoquinolinesulfonyl)pyrrolidine], the pIC50 against human ROCK1 is over 6.00. The inhibition in vivo at 3000 µM in assay [1] is 5 to 10%. With `N[C@H]1CCN(S(=O)(=O)c2cccc3c(O)ncc(Cl)c23)C1` [Example 30-1, (S)-3-Amino-1-(1-hydroxy-4-chloro-5-isoquinolinesulfonyl)pyrrolidine], the pIC50 against human ROCK1 was over 6.00. For the same compound, the inhibition in vivo at 3000 µM in assay [1] is at least 20%. `CN[C@@H]1CCN(S(=O)(=O)c2cccc3c(O)ncc(Cl)c23)C1` [Example 36-2, (R)-1-(1-Hydroxy-4-chloro-5-isoquinolinesulfonyl)-3-(methylamino)pyrrolidine] had a pIC50 on human ROCK1 of 5.52 to 6.00. Further, the inhibition in vivo at 3000 µM in assay [1] lay within 10 to 20%.

`O=S(=O)(c1cccc2c(O)ncc(Br)c12)N1CC[C@H](NCc2ccco2)C1` [Example 38-1, (S)-1-(1-Hydroxy-4-bromo-5-isoquinolinesulfonyl)-3-(2-furylmethylamino)pyrrolidine] had a negative-log IC50 (pIC50) against human ROCK1 of 5.52 to 6.00. In addition, the inhibition in vivo at 3000 µM in assay [1] lay in the range of 5 to 10%.

In the case of `CC(N)C1CCN(S(=O)(=O)c2cccc3cncc(Cl)c23)C1` (stereo not drawn) [Example 45, 3-(1-Aminoethyl)-1-(4-chloro-5-isoquinolinesulfonyl)pyrrolidine], the pIC50 on human ROCK1 was 5.52 to 6.00. The inhibition in vivo at 3000 µM in assay [1] was in the range of 5 to 10%. With `CNCC(=O)N[C@H]1CCN(S(=O)(=O)c2cccc3cncc(Cl)c23)C1` [Example 51-1, (S)-3-(2-Methylaminoacetyl)amino-1-(4-chloro-5-isoquinolinesulfonyl)pyrrolidine], the pIC50 at human ROCK1 is 5.52 to 6.00. Further, in assay [1], the inhibition in vivo at 3000 µM was 10 to 20%. Regarding `CC(N)C1CCN(S(=O)(=O)c2cccc3cncc(Cl)c23)CC1` (stereo not drawn) [Example 53], the pIC50 at human ROCK1 was over 6.00. In addition, the inhibition in vivo at 3000 µM in assay [1] was 10 to 20%. In turn, `NCC(=O)N[C@H]1CCN(S(=O)(=O)c2cccc3cncc(Cl)c23)C1` [Example 58-1, (S)-3-(2-Aminoacetyl)amino-1-(4-chloro-5-isoquinolinesulfonyl)pyrrolidine] gave a pIC50 on human ROCK1 of 5.52 to 6.00. The inhibition in vivo at 3000 µM in assay [1] was at least 20%.

With `NCC1CN(S(=O)(=O)c2cccc3cncc(Cl)c23)C1` [Example 60, 3-(Aminomethyl)-1-(4-chloro-5-isoquinolinesulfonyl)azetidine], the pIC50 against human ROCK1 was 5.52 to 6.00. Further, the inhibition in vivo at 3000 µM in assay [1] is 5 to 10%. For the compound `NCCCN[C@H]1CCN(S(=O)(=O)c2cccc3cncc(Cl)c23)C1` [Example 62-1, (S)-3-(3-Aminopropyl)amino-1-(4-chloro-5-isoquinolinesulfonyl)pyrrolidine], the pIC50 at human ROCK1 was 5.52 to 6.00. Besides, the inhibition in vivo at 3000 µM in assay [1] was 10 to 20%.

In the case of `O=S(=O)(c1cccc2c(O)ncc(Cl)c12)N1CC[C@H](NC2CCOCC2)C1` [Example 64-1, (S)-3-(4-Tetrahydropyranyl)amino-1-(1-hydroxy-4-chloro-5-isoquinolinesulfonyl)pyrrolidine], on human ROCK1, the pIC50 was over 6.00. Moreover, in assay [1], the inhibition in vivo at 3000 µM was in the range of 10 to 20%.

At human ROCK1, `Cc1cncc2cccc(S(=O)(=O)N3CC[C@H](NCCCNC(=O)Nc4ccccc4)C3)c12` [Example 65-1, (S)—N-[3-[1-(4-Methyl-5-isoquinolinesulfonyl)pyrrolidin-3-yl]aminopropyl],N′-phenylurea] had a negative-log IC50 (pIC50) of over 6.00. For the same compound, the inhibition in vivo at 3000 µM in assay [1] fell in the range of 10 to 20%. Compound `O=C(CCN1CCCCC1)N[C@H]1CCN(S(=O)(=O)c2cccc3cncc(Cl)c23)C1` [Example 80, (S)-3-[3-(Piperidin-1-yl)propionyl]amino-1-(4-chloro-5-isoquinolinesulfonyl)pyrrolidine] showed a negative logarithm of the IC50 (pIC50) at human ROCK1 of 5.52 to 6.00. The inhibition in vivo at 3000 µM in assay [1] is 5 to 10%. The compound `O=C(CCN1CCNCC1)N[C@H]1CCN(S(=O)(=O)c2cccc3cncc(Cl)c23)C1` [Example 83, (S)-3-[3-(piperazin-1-yl)propionyl]amino-1-(4-chloro-5-isoquinolinesulfonyl)pyrrolidine] had a pIC50 against human ROCK1 of 5.52 to 6.00. Besides, the inhibition in vivo at 3000 µM in assay [1] lay within 10 to 20%. At human ROCK1, `O=C(Cn1cnnn1)N[C@H]1CCN(S(=O)(=O)c2cccc3cncc(Cl)c23)C1` [Example 85, (S)-3-[2-(1H-Tetrazol-1-yl)acetyl]amino-1-(4-chloro-5-isoquinolinesulfonyl)pyrrolidine] gave a pIC50 of 5.52 to 6.00. The inhibition in vivo at 3000 µM in assay [1] is 10 to 20%. Take `NOCC(=O)N[C@H]1CCN(S(=O)(=O)c2cccc3cncc(Cl)c23)C1` [Example 101, (S)-3-[2-(Aminooxy)acetyl]amino-1-(4-chloro-5-isoquinolinesulfonyl)pyrrolidine]: the pIC50 against human ROCK1 is over 6.00. Also, the inhibition in vivo at 3000 µM in assay [1] was at least 20%. Taken in the same sequence, the figures for `O=C(N[C@H]1CCN(S(=O)(=O)c2cccc3cncc(Cl)c23)C1)C1CNCCO1` (stereo partly drawn) [Example 102, N—[(S)-1-(4-chloro-5-isoquinolinesulfonyl)pyrrolidin-3-yl]morpholin-2-carboxamide] were over 6.00 and at least 20%.

Compound `O=C(COc1ccccc1)N[C@H]1CCN(S(=O)(=O)c2cccc3cncc(Cl)c23)C1` [Example 103, (S)-3-(2-Phenoxyacetyl)amino-1-(4-chloro-5-isoquinolinesulfonyl)pyrrolidine] had a pIC50 against human ROCK1 of 5.52 to 6.00. Moreover, in assay [1], the inhibition in vivo at 3000 µM is at least 20%. On to `O=C(COc1cccnc1)N[C@H]1CCN(S(=O)(=O)c2cccc3cncc(Cl)c23)C1` [Example 104, (S)-3-[2-(3-Pyridyloxy)acetyl]amino-1-(4-chloro-5-isoquinolinesulfonyl)pyrrolidine], for which, at human ROCK1, the pIC50 was 5.52 to 6.00. In assay [1], the inhibition in vivo at 3000 µM is at least 20%. Turning to `O=C(N[C@H]1CCN(S(=O)(=O)c2cccc3cncc(Cl)c23)C1)C1COCCO1` (stereo partly drawn) [Example 109, N—[(S)-1-(4-Chloro-5-isoquinolinesulfonyl)pyrrolidin-3-yl]-1,4-dioxane-2-carboxamide], the pIC50 on human ROCK1 was 5.52 to 6.00. Also, the inhibition in vivo at 3000 µM in assay [1] is at least 20%.

`O=C(COC1CCOCC1)N[C@H]1CCN(S(=O)(=O)c2cccc3cncc(Cl)c23)C1` [Example 110, (S)-3-[[2-(Tetrahydro-2H-pyran-4-yloxy)]acetyl]amino-1-(4-chloro-5-isoquinolinesulfonyl)pyrrolidine] gave a negative logarithm of the IC50 (pIC50) against human ROCK1 of 5.52 to 6.00. Moreover, in assay [1], the inhibition in vivo at 3000 µM was at least 20%. The compound `O=C(CN1CCC1)N[C@H]1CCN(S(=O)(=O)c2cccc3cncc(Cl)c23)C1` [Example 114, (S)-3-[2-(Azetidin-1-yl)acetyl]amino-1-(4-chloro-5-isoquinolinesulfonyl)pyrrolidine] gave a pIC50 against human ROCK1 of 5.52 to 6.00. In assay [1], the inhibition in vivo at 3000 µM lay in the range of 5 to 10%.

The values above are taken from patent publication US7964613B2 (Asahi Kasei Pharma Corporation, priority 2007, dated 2011).
